The values below come from US20260297060A1, “COMPOUNDS FOR THE DEGRADATION OF MUTANT BRAF” (C4 THERAPEUTICS, INC., priority 2023, published 2026).

One test concerns the target T1, BRAF V600E (Homo sapiens, UniProt P15056+Q96SW2, V600E).
T1 construct: knock-in of the HiBiT tag to the endogenous BRAF V600E locus; host or cells: A375.10 (A375 clonal line, CRISPR HiBiT knock-in at the endogenous BRAF V600E locus)
Nature of the test: BRAF V600E HiBiT Degradation Assay. It is filed as cell-based. In outline: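 Endogenous HiBiT knock-in on BRAF V600E in A375 cells (clone A375.10); 11-point half-log series, top 10 μM, 2, 6 or 24 h at 37° C. Lytic HiBiT luminescence, background-subtracted, normalized to DMSO; 4-parameter fit gives DC50, Emax (residual protein) and IP (inflection point).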

The next test concerns A375-NRAS^Q61K cells. Nature of the test: CTGlo Cell Viability Assay, A375-NRAS^Q61K (A375.11) cells, 96 hours. It is filed as cell-based, human. The note with it: A375.11 (A375-NRAS^Q61K) cells; for CTGlo A375.11 96 hours Emax / Emax: lowest % viability achieved. The method, boiled down: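 A375 cells carrying BRAF V600E and NRAS Q61K were seeded at 250 cells/well with a 10-point half-log dose series (max 10 μM final). After 96 h at 37 °C, viability was read as ATP luminescence (CellTiter-Glo), background-subtracted and normalized to DMSO (100%). GI50 from 4-parameter fit; Emax is the lowest % viability.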

[1] abbreviates: A375.10 cells, BRAF V600E, 2 hours, read-out: HiBiT-Degradation A375.10 BRAF 2 hours DC50.
Where [2] appears, read: A375.10 cells, BRAF V600E, 2 hours, residual protein remaining.
Setting [3] is: A375.10 cells, BRAF V600E, 2 hours, inflection point, read-out: HiBiT-Degradation A375.10 BRAF 2 hours IP.
Where [4] appears, read: A375.10 cells, HiBiT, BRAF V600E, 24 hours, read-out: HiBiT-Degradation A375.10 BRAF 24 hours DC50.
The mark [5] stands for this setting: A375.10 cells, HiBiT, BRAF V600E, 24 hours, read-out: HiBiT-Degradation A375.10 BRAF 24 hours IP.
Setting [6] is: A375.10 cells, BRAF V600E, 2 hours, residual protein remaining, read-out: HiBiT-Degradation A375.10 BRAF 2 hours Emax.
The mark [7] stands for this setting: A375.10 cells, HiBiT, BRAF V600E, 24 hours, read-out: HiBiT-Degradation A375.10 BRAF 24 hours Emax.
[8] abbreviates: read-out: HiBiT-Degradation A375.10 BRAF 2 hours DC50, A375.10 cells, BRAF V600E, 2 hours.
The mark [9] stands for this setting: read-out: HiBiT-Degradation A375.10 BRAF 2 hours IP, A375.10 cells, BRAF V600E, 2 hours, inflection point.

Where two headings read alike, the source gives them in different places. Some results are limits rather than exact numbers.

T1 sequence (P15056 whole entry V600E): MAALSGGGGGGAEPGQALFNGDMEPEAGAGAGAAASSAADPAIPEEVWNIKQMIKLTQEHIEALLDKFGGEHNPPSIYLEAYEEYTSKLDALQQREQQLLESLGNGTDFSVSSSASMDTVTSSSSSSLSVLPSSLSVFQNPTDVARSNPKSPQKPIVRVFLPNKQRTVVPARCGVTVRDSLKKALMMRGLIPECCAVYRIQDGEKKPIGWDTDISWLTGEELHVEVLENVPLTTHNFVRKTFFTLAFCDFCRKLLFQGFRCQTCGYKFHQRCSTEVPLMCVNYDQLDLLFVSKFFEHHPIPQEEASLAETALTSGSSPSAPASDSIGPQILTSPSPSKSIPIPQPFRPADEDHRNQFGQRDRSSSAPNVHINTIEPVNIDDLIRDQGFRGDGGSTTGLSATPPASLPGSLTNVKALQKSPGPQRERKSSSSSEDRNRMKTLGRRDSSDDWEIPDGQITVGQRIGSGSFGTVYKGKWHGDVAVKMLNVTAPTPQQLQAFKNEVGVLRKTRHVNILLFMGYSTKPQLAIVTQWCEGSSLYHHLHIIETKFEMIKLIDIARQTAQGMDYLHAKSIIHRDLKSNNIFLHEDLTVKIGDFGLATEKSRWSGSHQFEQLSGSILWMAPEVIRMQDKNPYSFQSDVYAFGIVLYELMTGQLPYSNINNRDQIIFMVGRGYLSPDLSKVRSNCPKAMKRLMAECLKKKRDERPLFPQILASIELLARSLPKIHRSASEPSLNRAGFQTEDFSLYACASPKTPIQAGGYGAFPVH
T1 sequence (Q96SW2 whole entry): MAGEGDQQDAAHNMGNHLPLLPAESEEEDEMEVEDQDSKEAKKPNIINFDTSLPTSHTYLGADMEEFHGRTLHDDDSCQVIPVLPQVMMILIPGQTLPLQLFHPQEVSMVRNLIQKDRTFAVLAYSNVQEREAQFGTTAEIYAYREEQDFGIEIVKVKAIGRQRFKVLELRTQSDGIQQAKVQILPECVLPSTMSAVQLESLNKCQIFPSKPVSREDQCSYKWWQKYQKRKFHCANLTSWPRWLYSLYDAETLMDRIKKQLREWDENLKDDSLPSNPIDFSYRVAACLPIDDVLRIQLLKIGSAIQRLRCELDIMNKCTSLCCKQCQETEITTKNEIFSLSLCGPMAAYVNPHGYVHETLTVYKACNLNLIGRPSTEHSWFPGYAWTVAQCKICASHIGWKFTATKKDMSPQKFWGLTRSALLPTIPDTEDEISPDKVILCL
T1 sequence (Q16531 whole entry partner): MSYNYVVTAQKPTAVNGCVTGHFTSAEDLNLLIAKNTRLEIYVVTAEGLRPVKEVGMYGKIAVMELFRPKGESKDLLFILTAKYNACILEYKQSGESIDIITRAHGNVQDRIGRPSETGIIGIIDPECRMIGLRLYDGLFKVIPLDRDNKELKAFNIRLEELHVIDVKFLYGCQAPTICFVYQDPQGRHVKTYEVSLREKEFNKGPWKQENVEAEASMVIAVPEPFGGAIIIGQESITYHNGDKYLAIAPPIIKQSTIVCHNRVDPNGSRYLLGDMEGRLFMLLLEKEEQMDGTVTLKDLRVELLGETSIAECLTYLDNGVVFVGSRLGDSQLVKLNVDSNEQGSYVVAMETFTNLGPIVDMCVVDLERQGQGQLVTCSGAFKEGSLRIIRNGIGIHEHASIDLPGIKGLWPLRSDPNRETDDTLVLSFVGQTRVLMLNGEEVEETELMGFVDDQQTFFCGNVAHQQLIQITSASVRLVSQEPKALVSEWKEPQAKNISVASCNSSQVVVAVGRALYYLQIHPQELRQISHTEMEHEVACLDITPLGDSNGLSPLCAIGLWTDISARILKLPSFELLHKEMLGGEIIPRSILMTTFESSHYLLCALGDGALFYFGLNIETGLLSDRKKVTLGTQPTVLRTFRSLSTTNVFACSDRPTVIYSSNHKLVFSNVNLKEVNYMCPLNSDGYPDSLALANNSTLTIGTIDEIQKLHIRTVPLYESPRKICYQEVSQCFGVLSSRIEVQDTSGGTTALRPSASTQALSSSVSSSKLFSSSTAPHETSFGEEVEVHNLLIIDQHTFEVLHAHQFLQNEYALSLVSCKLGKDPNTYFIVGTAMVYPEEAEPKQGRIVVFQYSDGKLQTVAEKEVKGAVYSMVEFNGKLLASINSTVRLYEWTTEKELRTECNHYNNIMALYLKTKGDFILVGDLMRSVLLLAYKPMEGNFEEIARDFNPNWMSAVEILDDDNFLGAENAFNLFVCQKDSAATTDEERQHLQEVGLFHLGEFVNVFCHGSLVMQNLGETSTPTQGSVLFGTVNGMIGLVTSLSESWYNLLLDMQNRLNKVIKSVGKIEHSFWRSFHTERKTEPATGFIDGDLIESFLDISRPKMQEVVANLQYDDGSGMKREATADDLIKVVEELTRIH

In general, GI50 refers to the concentration giving 50% growth inhibition. Low values mean more potent growth inhibition, high ones less potent growth inhibition. On to `CCN(C)S(=O)(=O)Nc1ccc(F)c(Oc2ccc3ncn([C@H]4CO[C@@]5(CCN(C6CCC(c7cc8c(cc7F)c(N7CCC(=O)NC7=O)nn8C)CC6)C5)C4)c(=O)c3c2)c1C#N` (single isomer, unassigned) [Compound 293], for which the DC50 on BRAF V600E (setting [1]) was < 1000 nM. Also, the “HiBiT-Degradation A375.10 BRAF 2 hours Emax” value at BRAF V600E (setting [2]) was “*** (<=50%)”. In addition, in the test on A375-NRAS^Q61K cells, the GI50 is < 1000 nM; the “CTGlo A375.11 96 hours Emax” value is “** (<90% and >50%)”.
On to `CO[C@@H]1CCN(S(=O)(=O)Nc2ccc(F)c(Oc3ccc4ncn(C5CC6(CCN(C7CCC(c8cc9c(cc8F)c(N8CCC(=O)NC8=O)nn9C)CC7)CC6)C5)c(=O)c4c3)c2C#N)C1` (single isomer, unassigned) [Compound 102], for which the DC50 on BRAF V600E (setting [3]) was < 1000 nM; on BRAF V600E (setting [1]) it was < 1000 nM; at BRAF V600E (A375.10 cells, BRAF V600E, 6 hours, inflection point, read-out: HiBiT-Degradation A375.10 BRAF 6 hours IP), < 1000 nM; at BRAF V600E (A375.10 cells, BRAF V600E, 6 hours, read-out: HiBiT-Degradation A375.10 BRAF 6 hours DC50) it was < 1000 nM; on BRAF V600E (setting [4]) it was < 1000 nM; on BRAF V600E (setting [5]) it was < 1000 nM. Also, at BRAF V600E (setting [2]), the “HiBiT-Degradation A375.10 BRAF 2 hours Emax” value is on record as “*** (<=50%)”. The “HiBiT-Degradation A375.10 BRAF 6 hours Emax” value at BRAF V600E (A375.10 cells, BRAF V600E, 6 hours, residual protein remaining) is listed as “*** (<=50%)”. In addition, the “HiBiT-Degradation A375.10 BRAF 24 hours Emax” value on BRAF V600E (A375.10 cells, HiBiT, BRAF V600E, 24 hours) is recorded as “*** (<=50%)”. Further, in the test on A375-NRAS^Q61K cells, the GI50 is < 1000 nM. Moreover, the “CTGlo A375.11 96 hours Emax” value in the test on A375-NRAS^Q61K cells is listed as “*** (<=50%)”.
Take `CCN(C)S(=O)(=O)Nc1ccc(F)c(Oc2ccc3ncn(CC4(F)CCN(C5CCC(c6cc7c(cc6F)c(N6CCC(=O)NC6=O)nn7C)CC5)CC4)c(=O)c3c2)c1C#N` (single isomer, unassigned) [Compound 201, 6-[2-cyano-3-[[ethyl(methyl)sulfamoyl]amino]-6-fluoro-phenoxy]-3-[[1-[4-[3-(2,4-dioxohexahydropyrimidin-1-yl)-5-fluoro-1-methyl-indazol-6-yl]cyclohexyl]-4-fluoro-4-piperidyl]methyl]-4-oxo-quinazoline]: the DC50 on BRAF V600E (setting [3]) and on BRAF V600E (setting [1]) was < 1000 nM in each case. Besides, the Emax at BRAF V600E (setting [6]) is < 50%; in the test with A375-NRAS^Q61K cells (Homo sapiens, 96 h) it was 50 to 90%. For the same compound, the GI50 in the test on A375-NRAS^Q61K cells (Homo sapiens, 96 h) was in the range of 1000 to 10000 nM.
For the compound `Cn1nc(N2CCC(=O)NC2=O)c2cc(F)c(N3CC4(CC(N5CCC6(CC5)C[C@@H](n5cnc7ccc(Oc8c(F)ccc(NS(=O)(=O)N9C[C@H]%10C[C@H]%10C9)c8C#N)cc7c5=O)CO6)C4)C3)cc21` [Compound 241, (1S,5R)-N-[2-cyano-3-[3-[(3R)-8-[2-[3-(2,4-dioxohexahydropyrimidin-1-yl)-5-fluoro-1-methyl-indazol-6-yl]-2-azaspiro[3.3]heptan-6-yl]-1-oxa-8-azaspiro[4.5]decan-3-yl]-4-oxo-quinazolin-6-yl]oxy-4-fluoro-phenyl]-3-azabicyclo[3.1.0]hexane-3-sulfonamide], the DC50 on BRAF V600E (setting [3]) and at BRAF V600E (setting [1]) was < 1000 nM each time. Also, the Emax at BRAF V600E (setting [6]) is < 50%; in the test with A375-NRAS^Q61K cells (Homo sapiens, 96 h) it was 50 to 90%. In addition, the GI50 with A375-NRAS^Q61K cells (Homo sapiens, 96 h) was 1000 to 10000 nM.
For the compound `CCN(C)S(=O)(=O)Nc1ccc(F)c(Oc2ccc3ncn([C@H]4COC5(CCN(C6C7COCC6CC(c6ccc(NC8CCC(=O)NC8=O)cc6F)C7)CC5)C4)c(=O)c3c2)c1C#N` (stereo partly drawn) [Compound 194, (3R)-3-[6-[2-cyano-3-[[ethyl(methyl)sulfamoyl]amino]-6-fluoro-phenoxy]-4-oxo-quinazolin-3-yl]-8-[7-[4-[(2,6-dioxo-3-piperidyl)amino]-2-fluoro-phenyl]-3-oxabicyclo[3.3.1]nonan-9-yl]-1-oxa-8-azaspiro[4.5]decane], the DC50 at BRAF V600E (setting [3]) is < 1000 nM; at BRAF V600E (setting [1]), > 10000 nM. Moreover, the Emax at BRAF V600E (read-out: HiBiT-Degradation A375.10 BRAF 2 hours Emax) and in the test on A375-NRAS^Q61K cells (Homo sapiens) was 50 to 90% in each case. Also, the GI50 in the test with A375-NRAS^Q61K cells (Homo sapiens) was > 10000 nM.
`CCN(C)S(=O)(=O)Nc1ccc(F)c(Oc2ccc3ncn(C4CC5(C4)CN(CC4CCN(c6cc7c(cc6F)c(N6CCC(=O)NC6=O)nn7C)CC4)C5)c(=O)c3c2)c1C#N` [Compound 296, 6-[2-cyano-3-[[ethyl(methyl)sulfamoyl]amino]-6-fluoro-phenoxy]-3-[2-[[1-[3-(2,4-dioxohexahydropyrimidin-1-yl)-5-fluoro-1-methyl-indazol-6-yl]-4-piperidyl]methyl]-2-azaspiro[3.3]heptan-6-yl]-4-oxo-quinazoline]: the DC50 at BRAF V600E (setting [3]), at BRAF V600E (setting [1]), at BRAF V600E (setting [4]) and on BRAF V600E (setting [5]) was < 1000 nM in each case. For the same compound, the Emax at BRAF V600E (setting [6]) is 50 to 90%; at BRAF V600E (setting [7]) it was < 50%; in the test with A375-NRAS^Q61K cells (Homo sapiens, 96 h), 50 to 90%. Moreover, the GI50 with A375-NRAS^Q61K cells (Homo sapiens, 96 h) was < 1000 nM.
For `CO[C@H]1CCN(S(=O)(=O)Nc2ccc(F)c(Oc3ccc4ncc(C5CC6(CCN(C7CC8(C7)CN(c7cc9c(cc7F)c(N7CCC(=O)NC7=O)nn9C)C8)CC6)C5)nc4c3)c2C#N)C1` (stereo partly drawn) [Compound 279, (3S)-N-[2-cyano-3-[3-[7-[2-[3-(2,4-dioxohexahydropyrimidin-1-yl)-5-fluoro-1-methyl-indazol-6-yl]-2-azaspiro[3.3]heptan-6-yl]-7-azaspiro[3.5]nonan-2-yl]quinoxalin-6-yl]oxy-4-fluoro-phenyl]-3-methoxy-pyrrolidine-1-sulfonamide], the Emax was 50 to 90% on BRAF V600E (setting [6]) and 50 to 90% in the test with A375-NRAS^Q61K cells (Homo sapiens, 96 h). Moreover, the DC50 on BRAF V600E (setting [8]) and on BRAF V600E (setting [9]) was < 1000 nM throughout. Further, the GI50 in the test on A375-NRAS^Q61K cells (Homo sapiens, 96 h) was > 10000 nM.
With `CCN(C)S(=O)(=O)Nc1ccc(F)c(Oc2ccc3ncc(C4CC5(C4)CN(C4CCC(c6cc7c(cc6F)c(N6CCC(=O)NC6=O)nn7C)CC4)C5)nc3c2)c1C#N` (single isomer, unassigned) [Compound 297, 7-[2-cyano-3-[[ethyl(methyl)sulfamoyl]amino]-6-fluoro-phenoxy]-2-[2-[4-[3-(2,4-dioxohexahydropyrimidin-1-yl)-5-fluoro-1-methyl-indazol-6-yl]cyclohexyl]-2-azaspiro[3.3]heptan-6-yl]quinoxaline], the DC50 at BRAF V600E (setting [3]) is < 1000 nM; at BRAF V600E (setting [1]), 1000 to 10000 nM; at BRAF V600E (setting [4]) it was < 1000 nM; at BRAF V600E (setting [5]) it was < 1000 nM. In addition, the Emax was 50 to 90% at BRAF V600E (setting [6]); < 50% at BRAF V600E (setting [7]); 50 to 90% with A375-NRAS^Q61K cells (Homo sapiens, 96 h). The same compound gave a GI50 with A375-NRAS^Q61K cells (Homo sapiens, 96 h) of 1000 to 10000 nM.
With `CCN(C)S(=O)(=O)Nc1ccc(F)c(Oc2ccc3ncn([C@@H]4CO[C@]5(CCN(C6CCC(c7cc8c(cc7F)c(N7CCC(=O)NC7=O)nn8C)CC6)C5)C4)c(=O)c3c2)c1C#N` (single isomer, unassigned) [Compound 290], the DC50 at BRAF V600E (setting [3]) was < 1000 nM; at BRAF V600E (setting [1]), 1000 to 10000 nM. Moreover, the Emax on BRAF V600E (setting [6]) was in the range of 50 to 90%. The GI50 with A375-NRAS^Q61K cells was > 10000 nM. The “CTGlo A375.11 96 hours Emax” value in the test with A375-NRAS^Q61K cells was “** (<90% and >50%)”.
Take `CN(CCO)S(=O)(=O)Nc1ccc(F)c(Oc2ccc3ncn([C@H]4COC5(CCN([C@H]6C[C@@H](c7cc8c(cc7F)c(N7CCC(=O)NC7=O)nn8C)C6)CC5)C4)c(=O)c3c2)c1C#N` [Compound 165, (3R)-3-[6-[2-cyano-6-fluoro-3-[[2-hydroxyethyl(methyl)sulfamoyl]amino]phenoxy]-4-oxo-quinazolin-3-yl]-8-[3-[3-(2,4-dioxohexahydropyrimidin-1-yl)-5-fluoro-1-methyl-indazol-6-yl]cyclobutyl]-1-oxa-8-azaspiro[4.5]decane]: the DC50 on BRAF V600E (setting [3]) and at BRAF V600E (setting [1]) was < 1000 nM in each case. The Emax on BRAF V600E (setting [6]) was in the range of 50 to 90%; in the test on A375-NRAS^Q61K cells (Homo sapiens, 96 h), 50 to 90%. Moreover, in the test with A375-NRAS^Q61K cells (Homo sapiens, 96 h), the GI50 was > 10000 nM.
Turning to `CC(C)S(=O)(=O)Nc1ccc(F)c(Oc2ccc3ncc(C4CC5(CCN(C6CC7(C6)CN(c6cc8c(cc6F)c(N6CCC(=O)NC6=O)nn8C)C7)CC5)C4)nc3c2)c1C#N` (stereo not drawn) [Compound 247, N-[2-cyano-3-[3-[7-[2-[3-(2,4-dioxohexahydropyrimidin-1-yl)-5-fluoro-1-methyl-indazol-6-yl]-2-azaspiro[3.3]heptan-6-yl]-7-azaspiro[3.5]nonan-2-yl]quinoxalin-6-yl]oxy-4-fluoro-phenyl]propane-2-sulfonamide], the Emax is < 50% on BRAF V600E (setting [6]) and 50 to 90% in the test with A375-NRAS^Q61K cells (Homo sapiens, 96 h). Moreover, the DC50 on BRAF V600E (setting [8]) and on BRAF V600E (setting [9]) was < 1000 nM throughout. Further, the GI50 with A375-NRAS^Q61K cells (Homo sapiens, 96 h) was in the range of 1000 to 10000 nM.
